# Target: T1, LmoNrdR (Listeria monocytogenes, UniProt Q8Y6W9)
# T1 construct: gene nrdR; full-length, C-terminal His6 tag kept (pET30a(+), NdeI/XhoI), E. coli BL21(DE3); 19 kDa with tag
# T1 sequence (Q8Y6W9 1-154): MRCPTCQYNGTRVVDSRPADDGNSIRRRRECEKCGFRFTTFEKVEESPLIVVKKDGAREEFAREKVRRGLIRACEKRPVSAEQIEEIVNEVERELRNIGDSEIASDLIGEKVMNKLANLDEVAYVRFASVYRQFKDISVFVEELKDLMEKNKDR
# Assay: size exclusion chromatography, oligomer shift; MST of DNA binding
# Settings: 25 mM Bis-Tris propane pH 6.5, 5 mM MgCl2, 100 mM KCl, 4 C; ADP alone
compound,measurement,value
Nc1ncnc2c1ncn2[C@@H]1O[C@H](COP(=O)(O)OP(=O)(O)O)[C@@H](O)[C@H]1O [ADP],"size exclusion chromatography, oligomer shift; MST of DNA binding",LmoNrdR also eluted as a tetramer in the presence of only ADP

# Reference: PMC12051234, “NrdR in Streptococcus and Listeria spp.: DNA Helix Phase Dependence of the Bacterial Ribonucleotide Reductase Repressor” (Molecular Microbiology, 2025)
